Measurements: US20250320206A1, “STAT6 DEGRADERS” (Gilead Sciences, Inc., priority 2024, published 2025)

The compounds below were run against T1, STAT6 (Homo sapiens, UniProt P42226) (assay: Stat6 Degrader Assay (HiBiT based, HeLa LgBiT clone 4.14)). Conditions: HeLa LgBiT clone 4.14 HiBiT-STAT6, 4-24 h incubation; read-out: STAT6 degradation Emax.
T1 construct: These cells express endogenous STAT6; host or cells: HeLa LgBiT clone 4.14
T1 sequence (P42226 1-847): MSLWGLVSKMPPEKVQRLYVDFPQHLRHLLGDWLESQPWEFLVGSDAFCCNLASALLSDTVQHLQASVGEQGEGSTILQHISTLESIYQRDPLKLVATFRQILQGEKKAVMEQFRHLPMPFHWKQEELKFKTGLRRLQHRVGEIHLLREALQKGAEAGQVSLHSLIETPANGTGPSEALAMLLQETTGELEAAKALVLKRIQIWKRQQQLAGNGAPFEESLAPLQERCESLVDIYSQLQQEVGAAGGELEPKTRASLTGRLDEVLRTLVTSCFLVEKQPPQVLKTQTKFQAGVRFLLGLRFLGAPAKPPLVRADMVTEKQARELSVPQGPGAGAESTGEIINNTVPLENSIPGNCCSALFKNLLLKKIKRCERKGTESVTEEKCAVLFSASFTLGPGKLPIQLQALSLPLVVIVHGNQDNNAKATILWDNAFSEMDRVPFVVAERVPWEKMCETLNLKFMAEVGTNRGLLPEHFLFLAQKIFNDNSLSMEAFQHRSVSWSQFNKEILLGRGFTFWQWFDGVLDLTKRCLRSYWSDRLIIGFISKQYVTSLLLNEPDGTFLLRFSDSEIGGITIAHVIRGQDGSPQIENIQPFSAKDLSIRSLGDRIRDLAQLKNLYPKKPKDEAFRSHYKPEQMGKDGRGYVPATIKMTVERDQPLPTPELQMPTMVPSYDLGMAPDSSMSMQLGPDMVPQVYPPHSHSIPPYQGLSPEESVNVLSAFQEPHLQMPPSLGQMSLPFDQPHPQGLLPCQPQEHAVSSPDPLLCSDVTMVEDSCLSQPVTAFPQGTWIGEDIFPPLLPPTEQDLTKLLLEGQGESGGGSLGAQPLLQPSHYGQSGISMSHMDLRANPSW
Type: cell-based
Description: This was a HiBit based assay. A HeLa cell line stably transfected with a small protein, LgBit (Large Bit) was obtained from Promega. These cells express endogenous STAT6. A small 11 amino acid gene sequence (HiBiT) was inserted in the STAT6 gene using CRISPR technology. Once STAT6 protein is expressed in the cells, the HiBiT sequence will bind the LgBit in the cells resulting in a functional NanoBiT protein, giving a luminescent tag to STAT6, see FIG. 2.
Single cell clones were prepared and the clone 4.14 was selected for the assay based on that clone showing high luminescence, high STAT6 phosphorylation upon stimulation with IL-4, and inhibition of luminescence when cells were treated with STAT6 siRNA.
HeLa LgBiT clone 4.14 cells were suspended in DMEM with 10% FCS, 1% Pen/Strep, Na-pyrovate and Hygromycin B, at a concentration of 1.25*105 cells pr mL. 5000 cells were added pr well of a 384 well plate and 20 nL of compound was added by Echo® liquid handler. NN6394A (terfenadine, a toxic compound) was added to control wells at 50 μM concentration to establish the assay window. In these wells the cells are dead which equals 100% degradation of STAT6.
After 4-24 h of incubation at 37° C. under 5% CO2/95% air, 5 μL substrate (Nano-GLO®) was added to the wells and the plates were centrifuged and incubated for 0.5 h.
The luminescence in the wells as a measure of non-degraded STAT6 was measured in a plate reader (BMG Pherastar FSX).
The dose-response curves for Examples 3u208, 3u246, 3u118, 3u119, 3u120, and 3u74 are shown in FIG. 1 (where percent degradation is plotted vs. test compound concentration in M on a log-scale).

How did the Emax turn out when `CNc1cc(=O)n(-c2ccnc3c2cc(CN2CCC(c4c(F)cc(C(=O)N5CCC(CCn6cc(-c7ccc8c(c7)n(C)c(=O)n8C7CCC(=O)NC7=O)nn6)CC5)cc4F)CC2)n3C)cc1F` (stereo not drawn) [Example 3u263, 3-(5-(1-(2-(1-(3,5-difluoro-4-(1-((4-(5-fluoro-4-(methylamino)-2-oxopyridin-1 (2H)-yl)-1-methyl-1H-pyrrolo[2,3-b]pyridin-2-yl)methyl)piperidin-4-yl)benzoyl)piperidin-4-yl)ethyl)-1H-1,2,3-triazol-4-yl)-3-methyl-2-oxo-2,3-dihydro-1H-benzo[d]imidazol-1-yl)piperidine-2,6-dione] was run?
The Emax was 70 to 80%.

How did the Emax turn out when `CNc1ccn(-c2ccnc3c2cc(CN2CCC(c4c(F)cc(C(=O)N5CCC(CN6CCN(c7cc8c(cc7F)n(C7CCC(=O)NC7=O)c(=O)n8C)CC6)CC5)cc4F)CC2)n3C)c(=O)c1F` (stereo not drawn) [Example 3u274, 3-(5-(4-((1-(3,5-difluoro-4-(1-((4-(3-fluoro-4-(methylamino)-2-oxopyridin-1 (2H)-yl)-1-methyl-1H-pyrrolo[2,3-b]pyridin-2-yl)methyl)piperidin-4-yl)benzoyl)piperidin-4-yl)methyl)piperazin-1-yl)-6-fluoro-3-methyl-2-oxo-2,3-dihydro-1H-benzo[d]imidazol-1-yl)piperidine-2,6-dione] was run?
The Emax was under 20%.

Same assay, conditions: HeLa LgBiT clone 4.14 HiBiT-STAT6, 4-24 h incubation; values given for compounds with >80% Emax; geometric mean; read-out: STAT6 degradation DC50

Which DC50 does the source give for `Cc1cc(C(=O)N2CCC(CN3CCN(Cc4ccc5c(c4)n(C)c(=O)n5[C@H]4CCC(=O)NC4=O)C[C@@H]3C)CC2)cc(F)c1C1=CCN(Cc2cc3c(-n4ccc5c(c4=O)CCN5)ccnc3n2C)CC1` (single isomer, unassigned) [Example 3u24] here?
Its DC50 is 1.2 nM.

How did the DC50 turn out when `Cc1cc(C(=O)N2CCC(CN3CCN(Cc4ccc5c(c4)n(C)c(=O)n5[C@H]4CCC(=O)NC4=O)C[C@@H]3C)CC2)cc(F)c1C1CCN(Cc2cc3c(-n4ccc5c(c4=O)CCN5)ccnc3n2C)CC1` (single isomer, unassigned) [Example 3u41] was run?
The DC50 was 6 nM.

How did the DC50 turn out when `CNc1ccn(-c2ccnc3c2cc(CN2CC=C(c4c(C)cc(C(=O)N5CCC(CN6CCN(Cc7ccc8c(c7)n(C)c(=O)n8C7CCC(=O)NC7=O)CC6)CC5)cc4F)CC2)n3C)c(=O)c1` (stereo not drawn) [Example 3u163, 3-(5-((4-((1-(3-fluoro-5-methyl-4-(1-((1-methyl-4-(4-(methylamino)-2-oxopyridin-1 (2H)-yl)-1H-pyrrolo[2,3-b]pyridin-2-yl)methyl)-1,2,3,6-tetrahydropyridin-4-yl)benzoyl)piperidin-4-yl)methyl)piperazin-1-yl)methyl)-3-methyl-2-oxo-2,3-dihydro-1H-benzo[d]imidazol-1-yl)piperidine-2,6-dione] was run?
The DC50 was 4.4 nM.

Which DC50 does the source give for `CNc1ccn(-c2cccc3c2cc([C@H](C)N2CC=C(c4c(C)cc(C(=O)N5CCC(CN6CCN(Cc7cc8c(cc7F)n([C@H]7CCC(=O)NC7=O)c(=O)n8C7CC7)C[C@@H]6C)CC5)cc4F)CC2)n3C)c(=O)c1` (single isomer, unassigned) [Example 3u167] here?
Its DC50 is 0.8 nM.

`CNc1cc(=O)n(-c2ccnc3c2cc([C@H](C)N2CC=C(c4c(C)cc(C(=O)N5CCC(CC6(O)CCN(c7ccc8c(c7)C7(CC7)C(=O)N8C7CCC(=O)NC7=O)CC6)CC5)cc4F)CC2)n3C)cc1F` (stereo partly drawn) [Example 3u70, 3-(5′-(4-((1-(3-fluoro-4-(1-((S)-1-(4-(5-fluoro-4-(methylamino)-2-oxopyridin-1 (2H)-yl)-1-methyl-1H-pyrrolo[2,3-b]pyridin-2-yl)ethyl)-1,2,3,6-tetrahydropyridin-4-yl)-5-methylbenzoyl)-piperidin-4-yl)methyl)-4-hydroxypiperidin-1-yl)-2′-oxospiro[cyclopropane-1,3′-indolin]-1′-yl)-piperidine-2,6-dione] was tested. Which DC50 did it give?
Its DC50 is 5.8 nM.

With `Cc1cc(C(=O)N2CCC(CN3CCN(Cc4ccc5c(c4)n(C4CC4)c(=O)n5[C@H]4CCC(=O)NC4=O)C[C@@H]3C)CC2)cc(F)c1C1=CCN([C@@H](C)c2cc3c(-n4ccc5c(c4=O)CCN5)ccnc3n2C)CC1` (single isomer, unassigned) [Example 3u145] as the compound, how does the DC50 read?
The DC50 was 2 nM.

`CNc1ccn(-c2ccnc3c2cc([C@H](C)N2CC=C(c4c(C)cc(C(=O)N5CCC(CN6CCN(Cc7ccc8c(c7)n(C)c(=O)n8[C@H]7CCC(=O)NC7=O)CC6)CC5)cc4F)CC2)n3C)c(=O)c1` (single isomer, unassigned) [Example 3u156] was tested. Which DC50 did it give?
Its DC50 is 0.6 nM.

With `Cc1cc(C(=O)N2CCC(CN3CCN(Cc4cc5c(cc4F)n(C4CCC(=O)NC4=O)c(=O)n5C4CC4)C[C@@H]3C)CC2)cc(F)c1C1=CCN([C@@H](C)c2cc3c(-n4ccc5c(c4=O)CCN5)ccnc3n2C)CC1` (stereo partly drawn) [Example 3u131, 3-(3-cyclopropyl-6-fluoro-5-(((S)-4-((1-(3-fluoro-5-methyl-4-(1-((S)-1-(1-methyl-4-(4-oxo-1,2,3,4-tetrahydro-5H-pyrrolo[3,2-c]pyridin-5-yl)-1H-pyrrolo[2,3-b]pyridin-2-yl)ethyl)-1,2,3,6-tetrahydropyridin-4-yl)benzoyl)piperidin-4-yl)methyl)-3-methylpiperazin-1-yl)methyl)-2-oxo-2,3-dihydro-1H-benzo[d]imidazol-1-yl)piperidine-2,6-dione] as the compound, how does the DC50 read?
Its DC50 is 0.8 nM.

For `Cc1cc(C(=O)N2CCC(CN3CCN(Cc4ccc5c(c4)n(C4CC4)c(=O)n5C4CCC(=O)NC4=O)C[C@@H]3C)CC2)cc(F)c1C1=CCN([C@@H](C)c2cc3c(-n4ccc5c(c4=O)CCN5)ccnc3n2C)CC1` (stereo partly drawn) [Example 3u143, 3-(3-cyclopropyl-5-(((S)-4-((1-(3-fluoro-5-methyl-4-(1-((S)-1-(1-methyl-4-(4-oxo-1,2,3,4-tetrahydro-5H-pyrrolo[3,2-c]pyridin-5-yl)-1H-pyrrolo[2,3-b]pyridin-2-yl)ethyl)-1,2,3,6-tetrahydropyridin-4-yl)benzoyl)piperidin-4-yl)methyl)-3-methylpiperazin-1-yl)methyl)-2-oxo-2,3-dihydro-1H-benzo[d]imidazol-1-yl)piperidine-2,6-dione], which DC50 is on record?
The DC50 was 0.7 nM.

For `Cc1cc(C(=O)N2CCC(CN3CCN(Cc4ccc5c(c4)n(C)c(=O)n5[C@@H]4CCC(=O)NC4=O)C[C@@H]3C)CC2)cc(F)c1C1=CCN([C@@H](C)c2cc3c(-n4ccc5c(c4=O)CCN5)ccnc3n2C)CC1` (single isomer, unassigned) [Example 3u139], which DC50 is on record?
The DC50 was 0.2 nM.

How did the DC50 turn out when `CNc1ccn(-c2ccnc3c2cc(CN2CCC(c4c(C)cc(C(=O)N5CCC(CN6CCN(Cc7ccc8c(c7)n(C)c(=O)n8C7CCC(=O)NC7=O)CC6)CC5)cc4F)CC2)n3C)c(=O)c1` (stereo not drawn) [Example 3u158, 3-(5-((4-((1-(3-fluoro-5-methyl-4-(1-((1-methyl-4-(4-(methylamino)-2-oxopyridin-1 (2H)-yl)-1H-pyrrolo[2,3-b]pyridin-2-yl)methyl)piperidin-4-yl)benzoyl)piperidin-4-yl)methyl)-piperazin-1-yl)methyl)-3-methyl-2-oxo-2,3-dihydro-1H-benzo[d]imidazol-1-yl)piperidine-2,6-dione] was run?
Its DC50 is 24.1 nM.

`CNc1ccn(-c2ccnc3c2cc([C@H](C)N2CC=C(c4c(C)cc(C(=O)N5CCC(CN6CCN(Cc7ccc8c(c7)n(C7CC7)c(=O)n8[C@H]7CCC(=O)NC7=O)CC6)CC5)cc4F)CC2)n3C)c(=O)c1` (single isomer, unassigned) [Example 3u123] was tested. Which DC50 did it give?
Its DC50 is 0.9 nM.

`CNc1ccn(-c2ccnc3c2cc([C@H](C)N2CCC(c4ccc(C(=O)N5CCC(CN6CCN(Cc7ccc8c(c7)C7(CC7)C(=O)N8[C@@H]7CCC(=O)NC7=O)C[C@@H]6C)CC5)cc4)CC2)n3C)c(=O)c1` (single isomer, unassigned) [Example 3u7] was tested. Which DC50 did it give?
The DC50 was 0.6 nM.
